Results from the OligoGym collection.
After the bases stand the sugars from the 5' end (letter, count) and the backbone: PS all phosphorothioate, else s phosphorothioate and o phosphodiester by linkage. Methylation of C is not given here. e = 2'-O-(2-methoxyethyl) (MOE); k = constrained ethyl (cEt); d = 2'-deoxy (DNA); m = 2'-O-methyl

Molecular target: HSD17B13
Details: ASO, HepaRG

Sequence	target mRNA inhibition (1 µM) [%]	other results
TAGTTGGTAGCTTGCT (sugars k3 d10 k3, PS)	66	target mRNA inhibition (0.02 µM): 7%; target mRNA inhibition (0.078 µM): 31%; target mRNA inhibition (0.313 µM): 46%; target mRNA inhibition (1.25 µM): 74%; target mRNA inhibition (5 µM): 94%
TAGTTTGGTGGGCATG (sugars k3 d10 k3, PS)	28	
TATAACATGGCTGGCA (sugars k3 d10 k3, PS)	33	
TATAACTGAGCTAGAC (sugars k3 d10 k3, PS)	53	
TATACAGACTAAGGGA (sugars k3 d10 k3, PS)	24	
TATACATCAACTCCTC (sugars k3 d10 k3, PS)	39	
TATACCTGTTGCCTAG (sugars k3 d10 k3, PS)	11	
TATACTGAAGGCTGTG (sugars k3 d10 k3, PS)	44	
TATACTTTTCCGTCTC (sugars k3 d10 k3, PS)	71	target mRNA inhibition (0.02 µM): 0%; target mRNA inhibition (0.078 µM): 22%; target mRNA inhibition (0.313 µM): 44%; target mRNA inhibition (1.25 µM): 79%; target mRNA inhibition (5 µM): 83%
TATAGACTGGGTAGGA (sugars kkdddddddddkekek, PS)	38	
TATATACATCAACTCC (sugars k3 d10 k3, PS)	61	
TATATACCTGTTGCCT (sugars k3 d10 k3, PS)	55	
TATGAAGTTAGTATAG (sugars k3 d1 m1 d8 k3, PS)	27	
TATGAAGTTAGTATAG (sugars k3 d10 k3, PS)	30	
TATGTAATAGCCAGTA (sugars k3 d9 k3 e1, PS)	82	target mRNA inhibition (0.02 µM): 23%; target mRNA inhibition (0.078 µM): 28%; target mRNA inhibition (0.313 µM): 53%; target mRNA inhibition (1.25 µM): 78%; target mRNA inhibition (5 µM): 93%
TATGTAATAGCCAGTA (sugars k3 d10 k3, PS)	50	
TATGTGATTGAGTTCT (sugars kkdddddddddkekek, PS)	23	
TATTATGAGGATCTGG (sugars k3 d10 k3, PS)	44	
TATTATGTGATTGAGT (sugars k3 d9 k3 e1, PS)	51	
TATTATGTGATTGAGT (sugars kkdddddddddkekek, PS)	65	
TATTCCAGGATTTGCT (sugars k3 d10 k3, PS)	43	
TATTCTCCAACTCAGG (sugars k3 d10 k3, PS)	54	
TATTCTCTTGACAATG (sugars k3 d10 k3, PS)	47	
TATTCTGTGGCATGGC (sugars k3 d9 k3 e1, PS)	74	target mRNA inhibition (0.02 µM): 10%; target mRNA inhibition (0.078 µM): 0%; target mRNA inhibition (0.313 µM): 21%; target mRNA inhibition (1.25 µM): 55%; target mRNA inhibition (5 µM): 68%

Sequence	target mRNA inhibition (1 µM) [%]	other results
TATTGATATACGATGG (sugars k3 d10 k3, PS)	16	
TATTGTAGGGATTGAA (sugars k3 d10 k3, PS)	40	
TATTTAGCATTGCCTG (sugars k3 d10 k3, PS)	12	
TCAAAAAGGCCCAAGG (sugars k3 d10 k3, PS)	46	
TCAAAGCCTGTTGGAT (sugars k3 d10 k3, PS)	35	
TCAAAGTTTTGGGACC (sugars k3 d10 k3, PS)	42	
TCACAAAGTCCCTGAC (sugars k3 d10 k3, PS)	11	
TCACCTTATTAATATC (sugars k3 d10 k3, PS)	0	
TCACCTTTCATAATGT (sugars kkdddddddddkekek, PS)	31	
TCATAGTGGACTTCAT (sugars k3 d10 k3, PS)	36	
TCATATCCAGTAGGTG (sugars k3 d10 k3, PS)	32	
TCATCCTTGGTGCTGA (sugars k3 d10 k3, PS)	12	
TCATTATAAGCTAACT (sugars k3 d10 k3, PS)	0	
TCCAATATATACTGAC (sugars k3 d10 k3, PS)	72	
TCCACTTGAATTCTGT (sugars k3 d10 k3, PS)	32	
TCCACTTTTGGTGGAC (sugars k3 d10 k3, PS)	16	
TCCATAAAGCTGGATT (sugars k3 d10 k3, PS)	13	
TCCCAACCAAACTTCC (sugars k3 d1 m1 d8 k3, PS)	43	
TCCCAACCAAACTTCC (sugars k3 d9 k3 e1, PS)	24	
TCCCAACCAAACTTCC (sugars kkdddddddddkekek, PS)	27	
TCCCCTCAAATAGCCT (sugars k3 d10 k3, PS)	60	
TCCTAGGATGTTGACC (sugars k3 d10 k3, PS)	0	
TCCTATATACATCCAA (sugars k3 d10 k3, PS)	45	
TCCTGTGTTAGCTTTA (sugars kkdddddddddkekek, PS)	79	target mRNA inhibition (0.02 µM): 18%; target mRNA inhibition (0.078 µM): 29%; target mRNA inhibition (0.313 µM): 54%; target mRNA inhibition (1.25 µM): 71%; target mRNA inhibition (5 µM): 86%

Sequence	target mRNA inhibition (1 µM) [%]	other results
TCCTTATACTGAAGGC (sugars k3 d10 k3, PS)	22	
TCGATCCTATATACAT (sugars k3 d10 k3, PS)	40	
TCTAAGTTAGCCCCCA (sugars k3 d9 k3 e1, PS)	0	
TCTAAGTTAGCCCCCA (sugars k3 d10 k3, PS)	36	
TCTACAAAACTGGTAT (sugars k3 d10 k3, PS)	9	
TCTACATGGATCCAAC (sugars k3 d10 k3, PS)	26	
TCTAGAATTAAGGGCT (sugars k3 d10 k3, PS)	45	
TCTAGGAGATATAACA (sugars k3 d10 k3, PS)	48	
TCTATACAAAGGCAGT (sugars k3 d10 k3, PS)	53	
TCTCAGAGTTCAGGCA (sugars k3 d10 k3, PS)	54	
TCTCCAATACAGGCCA (sugars k3 d10 k3, PS)	21	
TCTCTAAAGCAGGCTA (sugars k3 d10 k3, PS)	60	
TCTCTCCATCATCGAT (sugars k3 d10 k3, PS)	24	
TCTCTTAGCTGTGCAC (sugars k3 d9 k3 e1, PS)	69	
TCTCTTAGCTGTGCAC (sugars kkdddddddddkekek, PS)	36	
TCTCTTGACAATGGTT (sugars k3 d9 k3 e1, PS)	84	target mRNA inhibition (0.02 µM): 0%; target mRNA inhibition (0.078 µM): 23%; target mRNA inhibition (0.313 µM): 47%; target mRNA inhibition (1.25 µM): 66%; target mRNA inhibition (5 µM): 79%
TCTCTTGGGTCCATTG (sugars k3 d10 k3, PS)	63	
TCTGTATAGCTGCATT (sugars k3 d10 k3, PS)	47	
TCTGTCTCCAATACAG (sugars k3 d10 k3, PS)	13	
TCTTAAGATACCCAGG (sugars k3 d9 k3 e1, PS)	48	
TCTTAGCTGTGCACTC (sugars k3 d10 k3, PS)	69	
TCTTATAAGACTATAA (sugars k3 d10 k3, PS)	17	
TCTTATCCACACCTTC (sugars k3 d10 k3, PS)	31	
TCTTATCTTGGGCACC (sugars k3 d10 k3, PS)	44	

Sequence	target mRNA inhibition (1 µM) [%]	other results
TCTTCACCTGATTTAG (sugars k3 d10 k3, PS)	24	
TCTTGACAATGGTTGA (sugars k3 d9 k3 e1, PS)	61	
TGAAATTGATACACCA (sugars k3 d10 k3, PS)	58	
TGAACAGTCTTAAACC (sugars k3 d9 k3 e1, PS)	61	
TGAACAGTCTTAAACC (sugars kkdddddddddkekek, PS)	34	
TGAACATACATTGTTG (sugars k3 d10 k3, PS)	29	
TGAAGATTAGTTAACC (sugars k3 d10 k3, PS)	21	
TGAATCATGATTGAAT (sugars k3 d10 k3, PS)	38	
TGACAATGGTTGATAG (sugars k3 d9 k3 e1, PS)	38	
TGACAATGTGCAGCTC (sugars k3 d10 k3, PS)	64	
TGACATAACTACTTCA (sugars k3 d10 k3, PS)	22	
TGACTAAGGAGCTAGA (sugars k3 d10 k3, PS)	31	
TGACTAATGCAAGATT (sugars k3 d10 k3, PS)	45	
TGAGAAGGCGGTATCA (sugars k3 d10 k3, PS)	20	
TGAGAATTTAAGAGGG (sugars k3 d10 k3, PS)	25	
TGAGATAAAGCTGCCT (sugars k3 d10 k3, PS)	63	
TGAGATGGGCAAGGCC (sugars k3 d10 k3, PS)	53	
TGAGTTACATTACAGC (sugars k3 d10 k3, PS)	90	target mRNA inhibition (0.02 µM): 16%; target mRNA inhibition (0.078 µM): 34%; target mRNA inhibition (0.313 µM): 72%; target mRNA inhibition (1.25 µM): 86%; target mRNA inhibition (5 µM): 89%
TGATACACCAATGCAG (sugars k3 d1 m1 d8 k3, PS)	38	
TGATACACCAATGCAG (sugars k3 d9 k3 e1, PS)	58	
TGATACACCAATGCAG (sugars kkdddddddddkekek, PS)	62	
TGATATTCTGTGGCAT (sugars k3 d9 k3 e1, PS)	74	target mRNA inhibition (0.02 µM): 8%; target mRNA inhibition (0.078 µM): 23%; target mRNA inhibition (0.313 µM): 40%; target mRNA inhibition (1.25 µM): 67%; target mRNA inhibition (5 µM): 90%
TGATCTTAAGGATCAT (sugars k3 d10 k3, PS)	0	
TGATTAAGCAGAATTG (sugars k3 d10 k3, PS)	57	
